According to PubChem BioAssay AID2060891 (Molecular Pharmacology Branch, DTP, NCI, 2025):

Tested on: K98450-129-R-PDC complex spheroid growth, percent test/control
Test: Anticancer human tumor K98450-129-R-PDC patient-derived colon adenocarcinoma cell line growth inhibition [RAS]
Conditions: for IC50: curve of first compound; for viability, T/C: stronger effect = lower value
From the text: RAS pathway inhibitors in Combinations in Complex Spheroids
A high-throughput screen of multi-cell type tumor spheroids was designed to identify active combinations of RAS pathway inhibitors and targeted small molecules. Complex spheroids include a stromal component modeled by human endothelial cells (HUVEC) and fibroblasts modeled by human mesenchymal stem cells (MSCs). The concentration ranges selected for each drug and investigational agent were based upon clinically achievable concentrations if the clinical Cmax of the agent was known.
Compounds. The drugs and investigational agents: abemaciclib (NSC768073), cobimetinib (NSC768068), divarasib (GDC6063, NSC841802), docetaxel (NSC628503), GDC-1971 (RLY-1971, NSC841576), gemcitabine (NSC613327), inavolisib (NSC800729), ipatasertib (NSC767898), KB-0742 (NSC834161), MRTX-1133 (NSC836407), osimertinib (NSC779217), RMC-4630 (NSC839698), RMC-6236 (NSC851965), RMC-6291 (NSC852671), Ro-3306 (NSC812927), sapanisertib (NSC764658), SN-38 (NSC673596), staurosporine (NSC755774), SY5609 (NSC837396), and tovorafenib (DAY101, NSC766906), were obtained from the National Cancer Institute (NCI) Developmental Therapeutics Program Chemical Repository. The FDA-approved anticancer drug set is available from the NCI Developmental Therapeutics Program. […] The stock solutions were prepared in dimethyl sulfoxide (DMSO, Sigma-Aldrich, St. Louis, MO, cat. D2650) at 800-fold the tested concentration and stored at -70 degrees C prior to their use. All drugs and investigational agents were tested over a range starting from a high concentration at or near the clinical Cmax and decreasing in half-log increments. If the clinical Cmax for an agent had not been determined, the highest concentration tested was 10 microM.
Cell Culture. All cells were maintained in an incubator at 37 degrees C and 5% CO2 with 95% humidity. The PDC lines were cultured according to standard operating procedures established by the NCI PDMR. All PDCs were thawed and cultured in Matrigel-coated flasks prepared with a working solution of 1X Ham's F-12 nutrient mix, without supplementation (Invitrogen, Waltham, MA, cat. 11765054), 100 U/mL penicillin-streptomycin (Invitrogen, cat. 15140122), and 2.5% Matrigel (Corning Inc., Corning, NY, cat. 354248) for the first three passages. The 362531-283-R-J2-PDC and 782815-120-R-J1-PDC lines were cultured in 6C/Colon 1B media, which includes advanced DMEM/F-12 (Thermo Fisher Scientific, cat. 12634028), 10 mM HEPES (Thermo Fisher Scientific, cat. 15630080), 1X GlutaMAX supplement (Thermo Fisher Scientific, cat. 35050061), 0.1 mg/mL primocin (InvivoGen, San Diego, CA, cat. ant-pm-2), 10% defined fetal bovine serum, heat inactivated (HyClone Laboratories Inc., Logan, UT, cat. SH30070.03HI), 50% L-WRN conditioned media (ATCC, cat. CRL-3276), 1.25 mM N-Acetyl-L-cysteine (Sigma-Aldrich, cat. A9165), 10 mM nicotinamide (Sigma-Aldrich, cat. N0636), 1X B-27 supplement (Thermo Fisher Scientific, cat. 17504044), 1X N-2 supplement (Thermo Fisher Scientific, cat. 17502048), 50 ng/mL human EGF (Thermo Fisher Scientific, cat. PHG0311), and 10 microM Y-27632 dihydrochloride (Tocris Bioscience, cat. 1254). The K12877-001-R-J1-PDC line was cultured in 6I media, which includes all 6C/Colon 1B media plus 10 ng/mL human FGF-10 (PeproTech, cat. 100-26), 1 ng/mL human FGF-2 (PeproTech, cat. 100-18B), 1 µM prostaglandin E2 (Tocris Bioscience, cat. 2296), […] hydrocortisone (Sigma-Aldrich, cat. H4001), and […] bovine insulin (Sigma-Aldrich, cat. I6634). The K86415-001-R-J1-PDC line was cultured in 6D media, which includes all 6C/Colon 1B media components minus the L-WRN conditioned media. The 485176-168-R4-J1-PDC was cultured in PANC media, which includes all 6C/Colon 1B media plus 100 ng/mL human FGF-10 (PeproTech, cat. 100-26), 500 nM SB-431542 (Selleckchem, cat. S1067), and 10 nM gastrin (Tocris Bioscience, cat. 3006). […]

[1] = second compound 0.0316 µM, first compound 0.0316 µM
[2] = second compound 0.0316 µM, first compound 0.1 µM
[3] = second compound 0.0316 µM, first compound 0.316 µM
[4] = second compound 0.0316 µM, first compound 1 µM
[5] = second compound 0.0316 µM, first compound 3.16 µM
[6] = second compound 0.0316 µM, first compound 10 µM
[7] = second compound 0.1 µM, first compound 0.0316 µM
[8] = second compound 0.1 µM, first compound 0.1 µM
[9] = second compound 0.1 µM, first compound 0.316 µM
[10] = second compound 0.1 µM, first compound 1 µM
[11] = second compound 0.1 µM, first compound 3.16 µM
[12] = second compound 0.1 µM, first compound 10 µM
[13] = second compound 0.316 µM, first compound 0.0316 µM
[14] = second compound 0.316 µM, first compound 0.1 µM
[15] = second compound 0.316 µM, first compound 0.316 µM
[16] = second compound 0.316 µM, first compound 1 µM
[17] = second compound 0.316 µM, first compound 3.16 µM
[18] = second compound 0.316 µM, first compound 10 µM
[19] = second compound 1 µM, first compound 0.0316 µM
[20] = second compound 1 µM, first compound 0.1 µM
[21] = second compound 1 µM, first compound 0.316 µM
[22] = second compound 1 µM, first compound 1 µM
[23] = second compound 1 µM, first compound 3.16 µM
[24] = second compound 1 µM, first compound 10 µM
[25] = second compound 3.16 µM, first compound 0.0316 µM
[26] = second compound 3.16 µM, first compound 0.1 µM
[27] = second compound 3.16 µM, first compound 0.316 µM
[28] = second compound 3.16 µM, first compound 1 µM
[29] = second compound 3.16 µM, first compound 3.16 µM
[30] = second compound 3.16 µM, first compound 10 µM
[31] = second compound 10 µM, first compound 0.0316 µM
[32] = second compound 10 µM, first compound 0.1 µM
[33] = second compound 10 µM, first compound 0.316 µM
[34] = second compound 10 µM, first compound 1 µM
[35] = second compound 10 µM, first compound 3.16 µM
[36] = second compound 10 µM, first compound 10 µM
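Note: spheroids exposed to agents for seven days before the viability readout.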
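Throughout, for viability, T/C: luminescence used as a proxy for viable cell amount.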

Cc1nc(N2CCC3(CC2)COC(C)C3N)c(CO)nc1Sc1ccnc(N)c1Cl (stereo unspecified) + C#Cc1c(F)ccc2cc(O)cc(-c3ncc4c(N5CC6CCC(C5)N6)nc(OCC56CCCN5CC(F)C6)nc4c3F)c12
IC50 (second compound 0.0316 µM): 3010 nM | IC50 (second compound 0.1 µM): 3130 nM | IC50 (second compound 0.316 µM): 2240 nM | IC50 (second compound 1 µM): 1720 nM | IC50 (second compound 3.16 µM): 1070 nM | IC50 (second compound 10 µM): 513 nM | viability, T/C [1]: 104% | viability, T/C [2]: 93.3% | viability, T/C [3]: 88.8% | viability, T/C [4]: 75.8% | viability, T/C [5]: 46.9% | viability, T/C [6]: 25% | viability, T/C [7]: 112% | viability, T/C [8]: 93.5% | viability, T/C [9]: 83.6% | viability, T/C [10]: 80.8% | viability, T/C [11]: 45.3% | viability, T/C [12]: 21.5% | viability, T/C [13]: 101% | viability, T/C [14]: 97.5% | viability, T/C [15]: 86.1% | viability, T/C [16]: 66.6% | viability, T/C [17]: 43.1% | viability, T/C [18]: 19.8% | viability, T/C [19]: 97% | viability, T/C [20]: 98.9% | viability, T/C [21]: 84% | viability, T/C [22]: 64.3% | viability, T/C [23]: 34.3% | viability, T/C [24]: 12.9% | viability, T/C [25]: 91.2% | viability, T/C [26]: 82% | viability, T/C [27]: 79.8% | viability, T/C [28]: 52.7% | viability, T/C [29]: 17.1% | viability, T/C [30]: 10.5% | viability, T/C [31]: 83.4% | viability, T/C [32]: 82.2% | viability, T/C [33]: 62.8% | viability, T/C [34]: 31.7% | viability, T/C [35]: 11.4% | viability, T/C [36]: 7.51%

NC1c2ccccc2OC12CCN(c1cnc3c(N4CCCc5ncccc54)n[nH]c3n1)CC2 (stereo unspecified) + C#Cc1c(F)ccc2cc(O)cc(-c3ncc4c(N5CC6CCC(C5)N6)nc(OCC56CCCN5CC(F)C6)nc4c3F)c12
IC50 (second compound 0.0316 µM): 195 nM | IC50 (second compound 0.1 µM): 189 nM | IC50 (second compound 0.316 µM): 165 nM | IC50 (second compound 1 µM): 141 nM | IC50 (second compound 3.16 µM): 75.8 nM | IC50 (second compound 10 µM): 48 nM | viability, T/C [1]: 92.2% | viability, T/C [2]: 73.8% | viability, T/C [3]: 32.1% | viability, T/C [4]: 17.4% | viability, T/C [5]: 11.8% | viability, T/C [6]: 9.37% | viability, T/C [7]: 97.8% | viability, T/C [8]: 72.7% | viability, T/C [9]: 31.3% | viability, T/C [10]: 14% | viability, T/C [11]: 9.92% | viability, T/C [12]: 6.11% | viability, T/C [13]: 96.6% | viability, T/C [14]: 70.2% | viability, T/C [15]: 23.4% | viability, T/C [16]: 10.3% | viability, T/C [17]: 8.37% | viability, T/C [18]: 6.2% | viability, T/C [19]: 91.2% | viability, T/C [20]: 65.2% | viability, T/C [21]: 14.2% | viability, T/C [22]: 8.69% | viability, T/C [23]: 6.98% | viability, T/C [24]: 6.07% | viability, T/C [25]: 78.2% | viability, T/C [26]: 41.1% | viability, T/C [27]: 10.8% | viability, T/C [28]: 7.66% | viability, T/C [29]: 5.66% | viability, T/C [30]: 4.62% | viability, T/C [31]: 63.9% | viability, T/C [32]: 25.6% | viability, T/C [33]: 7.94% | viability, T/C [34]: 6.21% | viability, T/C [35]: 4.84% | viability, T/C [36]: 2.23%

Nc1ccn(C2OC(CO)C(O)C2(F)F)c(=O)n1 (stereo unspecified) + C#Cc1c(F)ccc2cc(O)cc(-c3ncc4c(N5CC6CCC(C5)N6)nc(OCC56CCCN5CC(F)C6)nc4c3F)c12
IC50 (second compound 0.0316 µM): 72.2 nM | IC50 (second compound 0.1 µM): 87.7 nM | IC50 (second compound 0.316 µM): 83.8 nM | IC50 (second compound 1 µM): 74.2 nM | IC50 (second compound 3.16 µM): 90.5 nM | IC50 (second compound 10 µM): 87.5 nM | viability, T/C (second compound 0.0316 µM, first compound 0.00316 µM): 109% | viability, T/C (second compound 0.0316 µM, first compound 0.01 µM): 99.1% | viability, T/C [1]: 65.4% | viability, T/C [2]: 44.8% | viability, T/C [3]: 35.6% | viability, T/C [4]: 29.6% | viability, T/C (second compound 0.1 µM, first compound 0.00316 µM): 115% | viability, T/C (second compound 0.1 µM, first compound 0.01 µM): 106% | viability, T/C [7]: 73.5% | viability, T/C [8]: 47% | viability, T/C [9]: 37.8% | viability, T/C [10]: 29.7% | viability, T/C (second compound 0.316 µM, first compound 0.00316 µM): 107% | viability, T/C (second compound 0.316 µM, first compound 0.01 µM): 96.3% | viability, T/C [13]: 75.4% | viability, T/C [14]: 44.4% | viability, T/C [15]: 33.9% | viability, T/C [16]: 30.5% | viability, T/C (second compound 1 µM, first compound 0.00316 µM): 101% | viability, T/C (second compound 1 µM, first compound 0.01 µM): 94.7% | viability, T/C [19]: 68.1% | viability, T/C [20]: 43.3% | viability, T/C [21]: 38% | viability, T/C [22]: 31.9% | viability, T/C (second compound 3.16 µM, first compound 0.00316 µM): 95.7% | viability, T/C (second compound 3.16 µM, first compound 0.01 µM): 90% | viability, T/C [25]: 70.2% | viability, T/C [26]: 46.9% | viability, T/C [27]: 39.5% | viability, T/C [28]: 31.1% | viability, T/C (second compound 10 µM, first compound 0.00316 µM): 92.5% | viability, T/C (second compound 10 µM, first compound 0.01 µM): 87.9% | viability, T/C [31]: 71.6% | viability, T/C [32]: 46.6% | viability, T/C [33]: 37.2% | viability, T/C [34]: 32.4%
